One assay relates to PAF-induced hyperalgesia. As to the kind of experiment: Platelet Activating Factor-Induced Hyperalgesia in the Rat. The format is in vivo, rat (female Sprague-Dawley). Conditions: for effect in the PAF-induced hyperalgesia assay (in words): pain response to PAF, rat; for % Analgesia (percentage of animals with vocalization threshold greater than 200 of vehicle-treated controls): Table 1, 30 min before PAF, readings 3 hours after PAF. Here is the method: In this assay, which is sensitive to inhibition by lipoxygenase inhibitors, but not cyclooxygenase inhibitors, compounds of formula (I) reduced the pain response to PAF (Table 1).
Groups of 10 female Sprague-Dawley rats, 35-50 g (Taconic Farms), were fasted overnight prior to testing. Hyperalgesia was induced in the rat by the subplantar injection of 1 ug PAF in physiological saline. Pain threshold was measured by applying pressure to the plantar surface of the hindpaw by means of a compressed air driven piston with a 2 mm tip. Vocalization thresholds were obtained 3 hr after injection of the PAF. Compounds, prepared at various doses in 1% methylcellulose suspension, were administered perorally 30 min before PAF. For each drug treatment group, animals with response pressures in the inflamed paw of 200% of control was considered to be analgesic. The mean vocalization threshold for each group was also calculated.

Assay [1] has as its system microsomal ram vesicular gland cyclooxygenase. As to the kind of experiment: Inhibition of microsomal ram vesicular gland cyclooxygenase. The assay is classed as biochemical. From the text:
The protocol for measuring inhibition of this prostaglandin-producing enzyme has been published.

For assay [2], the target named is T1, RBL-1 cell 5-lipoxygenase (Rattus norvegicus, UniProt P12527).
T1 construct: measured in vitro against the RBL-1 cell 5-lipoxygenase; endogenous in cells; host or cells: RBL-1 cells
T1 sequence (P12527 1-673): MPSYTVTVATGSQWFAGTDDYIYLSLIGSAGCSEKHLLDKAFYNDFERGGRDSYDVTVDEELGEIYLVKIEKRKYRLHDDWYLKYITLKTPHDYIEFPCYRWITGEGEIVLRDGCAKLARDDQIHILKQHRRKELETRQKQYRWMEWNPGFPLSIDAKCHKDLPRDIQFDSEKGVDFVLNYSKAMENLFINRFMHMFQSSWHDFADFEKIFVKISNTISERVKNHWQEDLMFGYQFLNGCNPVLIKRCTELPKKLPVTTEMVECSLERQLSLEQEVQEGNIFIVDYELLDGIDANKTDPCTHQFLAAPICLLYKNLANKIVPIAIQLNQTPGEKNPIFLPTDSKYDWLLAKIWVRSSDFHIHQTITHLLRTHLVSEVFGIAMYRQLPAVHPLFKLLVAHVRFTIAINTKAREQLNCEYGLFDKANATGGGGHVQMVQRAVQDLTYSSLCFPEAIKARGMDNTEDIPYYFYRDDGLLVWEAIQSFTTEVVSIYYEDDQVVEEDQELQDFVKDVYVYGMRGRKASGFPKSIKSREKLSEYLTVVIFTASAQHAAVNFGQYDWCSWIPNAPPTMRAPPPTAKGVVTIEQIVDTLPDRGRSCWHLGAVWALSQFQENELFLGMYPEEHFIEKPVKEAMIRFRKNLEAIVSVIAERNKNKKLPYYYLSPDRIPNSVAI
Briefly: Inhibition of RBL-1 Cell 5-Lipoxygenase (5-HETE formation). The assay is classed as biochemical. The conditions noted are these: read-out: Percent Inhibition. The method, then: The ability of the compound of Formula I, e.g., Compound A, to inhibit leukotriene biosynthesis was also measured in vitro against the RBL-1 cell 5-lipoxygenase. The protocol for measuring inhibition of 5-HETE formation has been published in R. W. Egan et al., "Advances in Prostaglandin, Thromboxane, and leukotriene Research", Vol. 11 (edited by B. Samuelsson et al., Raven Press, N.Y., 1983), p. 151.

[3] abbreviates: Rattus norvegicus, po, 3 h, read-out: % Rats Exhibiting Analgesia.
The mark [4] stands for this setting: Rattus norvegicus, Platelet, po, 3 h, Table 2, 30 mg/kg p.o., read-out: % Rats Exhibiting Analgesia.

Read-outs that look alike come from different tables or passages of the source.

In the case of `CC(=O)Oc1ccccc1C(=O)O` [Aspirin], in the assay with PAF-induced hyperalgesia (setting [3]), the responders at 100 mg/kg was found to be 10%.
For `CC(C(=O)O)c1ccc2oc(-c3ccc(Cl)cc3)nc2c1` (centres unmarked) [Benoxaprofen], the responders at 30 mg/kg in the assay with PAF-induced hyperalgesia (setting [4]) worked out at 10%. Moreover, in the assay on PAF-induced hyperalgesia, the “effect in the PAF-induced hyperalgesia assay (in words)” value (shortened to “effect”) is listed as “completely ineffective”.
Regarding `CSc1ccc2sc(C(=O)Nc3cccc(Cl)c3)c(O)c2c1` [Compound A, --N--(3chlorophenyl)-3-hydroxy-5-(methylthio)benzo[b]thiophene2-carbxamide], the responders at 30 mg/kg with PAF-induced hyperalgesia (setting [4]) is 90%. For the same compound, the “% Analgesia (percentage of animals with vocalization threshold greater than 200 of vehicle-treated controls)” value in the assay with PAF-induced hyperalgesia (30 mg/kg p.o.) is 90%. In addition, in assay [1], the “Percent Inhibition” value was found to be 95%. For the same compound, in assay [2] (0.5 ug/ml), the inhibition at 0.5 µg/mL came out at 48%. The inhibition at 1 µg/mL in assay [2] (1 ug/ml) stood at 58%. Further, the inhibition at 2 µg/mL in assay [2] (2 ug/ml) came out at 74%. Further, the inhibition at 10 µg/mL in assay [2] (10 ug/ml) amounted to 83%.
As to `CSc1ccc2sc(C(=O)NCc3ccccc3)c(O)c2c1` [Compound B, 3Hydroxy-5-(methylthio)---N--(phenylmethyl)benzo[b]thiophene2-carboxmide], the “% Analgesia (percentage of animals with vocalization threshold greater than 200 of vehicle-treated controls)” value in the assay with PAF-induced hyperalgesia (30 mg/kg p.o.) stood at 80%.
For the compound `O=C(O)c1cc(-c2ccc(F)cc2F)ccc1O` [Diflunisal], in the assay with PAF-induced hyperalgesia (setting [4]), the responders at 30 mg/kg was 10%.
`CC(C)Cc1ccc(C(C)C(=O)O)cc1` (centres unmarked) [Ibuprofen]: the responders at 30 mg/kg in the assay on PAF-induced hyperalgesia (setting [4]) was 10%. Besides, the “effect” value with PAF-induced hyperalgesia is reported as “completely ineffective”.
Take `COc1ccc2c(c1)c(CC(=O)O)c(C)n2C(=O)c1ccc(Cl)cc1` [Indomethacin]: the responders at 10 mg/kg in the assay with PAF-induced hyperalgesia (setting [3]) worked out at 10%. Further, the “effect” value in the assay with PAF-induced hyperalgesia was “completely ineffective”.
As to `COc1ccc2cc([C@H](C)C(=O)O)ccc2c1` [Naproxen], the responders at 30 mg/kg in the assay on PAF-induced hyperalgesia (setting [3]) turned out to be 10%.
Consider `CN1C(C(=O)Nc2ccccn2)=C(O)c2ccccc2S1(=O)=O` [Piroxicam], for which the responders at 30 mg/kg with PAF-induced hyperalgesia (setting [4]) amounted to 0%. In addition, the “effect” value with PAF-induced hyperalgesia is given as “completely ineffective”.
For the compound `CC1=C(CC(=O)O)c2cc(F)ccc2/C1=C\c1ccc([S+](C)[O-])cc1` (centres unmarked) [Sulindac], in the assay with PAF-induced hyperalgesia (setting [4]), the responders at 30 mg/kg amounted to 10%.

Broadly, the inhibition is the change of the read-out against control, counted positive when it falls.
